Source: patent US8404643B2, “Metastin derivatives and use thereof” (priority 2005, dated 2013)
Numbered stars: 1 amine (or outer) side, 2 acyl side, 3 side chain; on linkers, the order of the positions; unused ones are H or OH. Square brackets hold non-standard residues; d marks the D form. Peptide text beside a SMILES is read from it. Nip(3R) = O=C([C@@H]1CCCN([*:1])C1)[*:2]; Arg(Me) = CNC(=N)NCCC[C@H](N)C(=O)O; Hyp = O=C(O)[C@@H]1C[C@@H](O)CN1; NMeA = CN[C@@H](C)C(=O)O; Thz = O=C(O)[C@@H]1CSCN1; dDap = NC[C@@H](N)C(=O)O; dNMeA = CN[C@H](C)C(=O)O; 2Abz = Nc1ccccc1C(=O)O; Aib = CC(C)(N)C(=O)O; azaGly = NNC(=O)O; Sar = CNCC(=O)O

molecular target: T1, hOT7T175 (Homo sapiens, UniProt Q969F8); experiment: Assay for intracellular Ca ion level-increasing activity using FLIPR; assay type: cell-based; details: hOT7T175/CHO cells, relative to Metastin (1-54)
T1 construct: expressed in transfected cells
Protocol: In accordance with the method described in JPA 2000-312590, the intracellular Ca ion level-increasing activity was measured using FLIPR.
The stable expression cell line hOT7T175 was obtained by transfection of the expression plasmid pAK-rOT175 for animal cells into CHO/dhfr^− cells, using CellPhect Transfection Kit (Amersham Pharmacia Biotech, Inc.). First, 240 μL of Buffer A (attached to CellPhect Transfection Kit) was added to 9.6 μg of plasmid DNA dissolved in 240 μL of distilled water followed by stirring. After the mixture was settled for 10 minutes, 480 μL of Buffer B (attached to CellPhect Transfection Kit) was added to the mixture, which was vigorously stirred to form liposomes containing the DNA. Then, 4×10^5 CHO/dhfr^− cells (obtained from ATCC) were inoculated on a 60 mm Petri dish. After culturing the cells in Ham's F-12 medium (Nissui Seiyaku Co., Ltd.) supplemented with 10% fetal bovine serum (BIO WHITTAKER, Inc.) at 37° C. for 2 days in 5% carbon dioxide gas, […] of the liposomes were dropwise added to the cells on the Petri dish. After culturing the cells at 37° C. for 6 hours in 5% carbon dioxide gas, the cells were washed twice with serum-free Ham's F-12 medium and 3 mL of 15% glycerol was added to the cells on the Petri dish followed by treatment for 2 minutes. The cells were again washed twice with serum-free Ham's F-12 medium followed by incubation in Ham's F-12 medium supplemented with 10% fetal bovine serum at 37° C. for 15 hours in 5% carbon dioxide gas. The cells were dispersed by trypsin treatment to recover from the Petri dish. The recovered cells were inoculated on a 6-well plate in 1.25×10^4 cells/well and incubation was initiated at 37° C. in Dulbecco's modified Eagle medium (DMEM) medium (Nissui Seiyaku Co., Ltd.) containing 10% dialyzed fetal bovine serum (JRH BIOSCIENCES, Inc.) in 5% carbon dioxide gas. The plasmid-transfected CHO transformants grew in the medium but the non-transfected cells gradually died, accordingly the medium was exchanged on Days 1 and 2 after the initiation of incubation to remove the cells died. Approximately 20 colonies of the CHO transformants that kept growing on Days 8 to 10 after the incubation were isolated. From the cells in these colonies, cells showing high reactivity with the ligand peptide metastin (hereinafter merely referred to as hOT7T175/CHO) were selected to provide for the following experiment.
The intracellular Ca ion level-increasing activity of the synthetic peptide in hOT7T175/CHO was determined using FLIPR (Molecular Devices, Inc.).
hOT7T175/CHO was subcultured in DMEM supplemented with 10% dialyzed fetal bovine serum (hereinafter abbreviated as dFBS) (hereinafter referred to as 10% dFBS/DMEM) and provided for the experiment. The hOT7T175/CHO was suspended in 10% dFBS-DMEM in 15×10^4 cells/ml. The suspension was inoculated on a 96-well plate for FLIPR (Black Plate Clear Bottom, Coster, Inc.) at 200 μl/well (3.0×10^4 cells/200 μL/well), followed by incubation at 37° C. overnight in a 5% CO2 incubator (hereinafter referred to as the cell plate). Then, 21 ml of HANKS/HBSS (9.8 g of HANKS, 0.35 g of sodium hydrogencarbonate, 20 ml of 1M HEPES; after adjusting the pH to 7.4 with 1N sodium hydroxide, the mixture was sterilized by filtration), 210 μl of 250 mM Probenecid and 210 μl of fetal bovine serum (FBS) (HANKS/HBSS-Probenecid-FBS) were mixed.
Furthermore, 2 vials of Fluo3-AM (50 μg/vial) were dissolved in 21 μL of dimethylsulfoxide and 21 μL of 20% Pluronic acid. The resulting solution was added to and mixed with 10 ml of the HANKS/HBSS-Probenecid-FBS described above. After the culture medium was removed, the mixture was dispensed onto the cell plate in 100 μl each/well, followed by incubation at 37° C. for an hour in a 5% CO2 incubator (pigment loading). The peptide was dissolved in dimethylsulfoxide in 1×10^−3 M. The peptide solution was diluted with HANKS/HBSS containing 2.5 mM Probenecid, 0.2% BSA and 0.1% CHAPS. […]

T1 sequence (Q969F8 whole entry L364H): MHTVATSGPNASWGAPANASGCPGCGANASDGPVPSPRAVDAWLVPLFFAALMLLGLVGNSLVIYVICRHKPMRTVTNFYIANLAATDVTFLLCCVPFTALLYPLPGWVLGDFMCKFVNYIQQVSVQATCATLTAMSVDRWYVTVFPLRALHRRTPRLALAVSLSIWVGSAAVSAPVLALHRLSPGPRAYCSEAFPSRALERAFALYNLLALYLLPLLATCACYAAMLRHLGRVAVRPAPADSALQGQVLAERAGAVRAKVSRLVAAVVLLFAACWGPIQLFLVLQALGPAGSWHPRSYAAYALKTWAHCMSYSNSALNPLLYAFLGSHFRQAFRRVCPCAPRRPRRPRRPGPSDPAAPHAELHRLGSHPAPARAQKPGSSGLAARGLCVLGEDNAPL

Going from CNC(=N)NCCC[C@H](NC(=O)[C@H](CC(C)C)NC(=O)NNC(=O)[C@H](Cc1ccccc1)NC(=O)[C@@H](NC(=O)[C@H](CC(N)=O)NC(=O)[C@@H]1CCCN(C(=O)[C@@H](Cc2ccc(O)cc2)NC(C)=O)C1)[C@@H](C)O)C(=O)N[C@@H](Cc1c[nH]c2ccccc12)C(N)=O [Compound No. 722, Ac-D-Tyr-Pic(3)-Asn-Thr-Phe-AzaGly-Leu-Arg(Me)-Trp-NH2] (Ac-[dY][Nip(3R)]NTF[azaGly]L[Arg(Me)]W-NH2) to CNC(=N)NCCC[C@H](NC(=O)[C@H](CC(C)C)NC(=O)NNC(=O)[C@H](Cc1ccccc1)NC(=O)[C@@H](NC(=O)[C@H](CC(N)=O)NC(=O)[C@@H]1NCCN1C(=O)[C@@H](Cc1ccc(O)cc1)NC(C)=O)[C@@H](C)O)C(=O)N[C@@H](Cc1c[nH]c2ccccc12)C(N)=O [Compound No. 734, Ac-D-Tyr-Izc-Asn-Thr-Phe-AzaGly-Leu-Arg(Me)-Trp-NH2], the “Specific Activity: intracellular Ca ion level-increasing activity [specific activity to Metastin (1-54)]” value rises from 2.2 to 2.3.

Compared with CNC(=N)NCCC[C@H](NC(=O)[C@H](CC(C)C)NC(=O)NNC(=O)[C@H](Cc1ccccc1)NC(=O)[C@@H](NC(=O)[C@H](CC(N)=O)NC(=O)[C@@H]1C[C@@H](O)CN1C(=O)[C@@H](Cc1ccc(O)cc1)NC(C)=O)[C@@H](C)O)C(=O)N[C@@H](Cc1c[nH]c2ccccc12)C(N)=O [Compound No. 723, Ac-D-Tyr-Hyp-Asn-Thr-Phe-AzaGly-Leu-Arg(Me)-Trp-NH2] (Ac-[dY][Hyp]NTF[azaGly]L[Arg(Me)]W-NH2), CNC(=N)NCCC[C@H](NC(=O)[C@H](CC(C)C)NC(=O)NNC(=O)[C@H](Cc1ccccc1)NC(=O)[C@@H](NC(=O)[C@H](CC(N)=O)NC(=O)[C@@H]1CSCN1C(=O)[C@@H](Cc1ccc(O)cc1)NC(C)=O)[C@@H](C)O)C(=O)N[C@@H](Cc1c[nH]c2ccccc12)C(N)=O [Compound No. 724, Ac-D-Tyr-Thz-Asn-Thr-Phe-AzaGly-Leu-Arg(Me)-Trp-NH2] (Ac-[dY][Thz]NTF[azaGly]L[Arg(Me)]W-NH2) is lower in “Specific Activity: intracellular Ca ion level-increasing activity [specific activity to Metastin (1-54)]” value: 2.0 for the first, 1.4 for the second.

Going from CNC(=N)NCCC[C@H](NC(=O)[C@H](CC(C)C)NC(=O)NNC(=O)[C@H](Cc1ccccc1)NC(=O)[C@@H](NC(=O)[C@H](CC(N)=O)NC(=O)[C@H](C)N(C)C(=O)[C@@H](Cc1ccc(O)cc1)NC(C)=O)[C@@H](C)O)C(=O)N[C@@H](Cc1c[nH]c2ccccc12)C(N)=O [Compound No. 725, Ac-D-Tyr-NMeAla-Asn-Thr-Phe-AzaGly-Leu-Arg(Me)-Trp-NH2] (Ac-[dY][NMeA]NTF[azaGly]L[Arg(Me)]W-NH2) to CNC(=N)NCCC[C@H](NC(=O)[C@H](CC(C)C)NC(=O)NNC(=O)[C@H](Cc1ccccc1)NC(=O)[C@@H](NC(=O)[C@H](CC(N)=O)NC(=O)[C@@H](C)N(C)C(=O)[C@@H](Cc1ccc(O)cc1)NC(C)=O)[C@@H](C)O)C(=O)N[C@@H](Cc1c[nH]c2ccccc12)C(N)=O [Compound No. 732, Ac-D-Tyr-D-NMeAla-Asn-Thr-Phe-AzaGly-Leu-Arg(Me)-Trp-NH2] (Ac-[dY][dNMeA]NTF[azaGly]L[Arg(Me)]W-NH2), the “Specific Activity: intracellular Ca ion level-increasing activity [specific activity to Metastin (1-54)]” value rises from 2.7 to 3.2.

First: CNC(=N)NCCC[C@H](NC(=O)[C@H](CC(C)C)NC(=O)NNC(=O)[C@H](Cc1ccccc1)NC(=O)[C@@H](NC(=O)[C@H](CC(N)=O)NC(=O)CNC(=O)[C@@H](Cc1ccc(O)cc1)NC(C)=O)[C@@H](C)O)C(=O)N[C@@H](Cc1c[nH]c2ccccc12)C(N)=O [Compound No. 726, Ac-D-Tyr-Gly-Asn-Thr-Phe-AzaGly-Leu-Arg(Me)-Trp-NH2] (Ac-[dY]GNTF[azaGly]L[Arg(Me)]W-NH2)
Second: CNC(=N)NCCC[C@H](NC(=O)[C@H](CC(C)C)NC(=O)NNC(=O)[C@H](Cc1ccccc1)NC(=O)[C@@H](NC(=O)[C@H](CC(N)=O)NC(=O)CN(C)C(=O)[C@@H](Cc1ccc(O)cc1)NC(C)=O)[C@@H](C)O)C(=O)N[C@@H](Cc1c[nH]c2ccccc12)C(N)=O [Compound No. 731, Ac-D-Tyr-Sar-Asn-Thr-Phe-AzaGly-Leu-Arg(Me)-Trp-NH2] (Ac-[dY][Sar]NTF[azaGly]L[Arg(Me)]W-NH2)
The “Specific Activity: intracellular Ca ion level-increasing activity [specific activity to Metastin (1-54)]” value of the first is lower: 3.1 for the first, 8.8 for the second.

Going from CNC(=N)NCCC[C@H](NC(=O)[C@H](CC(C)C)NC(=O)NNC(=O)[C@H](Cc1ccccc1)NC(=O)[C@@H](NC(=O)[C@H](CC(N)=O)NC(=O)C(C)(C)NC(=O)[C@@H](Cc1ccc(O)cc1)NC(C)=O)[C@@H](C)O)C(=O)N[C@@H](Cc1c[nH]c2ccccc12)C(N)=O [Compound No. 727, Ac-D-Tyr-Aib-Asn-Thr-Phe-AzaGly-Leu-Arg(Me)-Trp-NH2] (Ac-[dY][Aib]NTF[azaGly]L[Arg(Me)]W-NH2) to CNC(=N)NCCC[C@H](NC(=O)[C@H](CC(C)C)NC(=O)NNC(=O)[C@H](Cc1ccccc1)NC(=O)[C@@H](NC(=O)[C@H](CC(N)=O)NC(=O)[C@@H](CN)NC(=O)[C@@H](Cc1ccc(O)cc1)NC(C)=O)[C@@H](C)O)C(=O)N[C@@H](Cc1c[nH]c2ccccc12)C(N)=O [Compound No. 736, Ac-D-Tyr-D-Dap-Asn-Thr-Phe-AzaGly-Leu-Arg(Me)-Trp-NH2] (Ac-[dY][dDap]NTF[azaGly]L[Arg(Me)]W-NH2), the “Specific Activity: intracellular Ca ion level-increasing activity [specific activity to Metastin (1-54)]” value rises from 1.5 to 2.4.

Going from CNC(=N)NCCC[C@H](NC(=O)[C@H](CC(C)C)NC(=O)NNC(=O)[C@H](Cc1ccccc1)NC(=O)[C@@H](NC(=O)[C@H](CC(N)=O)NC(=O)c1ccccc1NC(=O)[C@@H](Cc1ccc(O)cc1)NC(C)=O)[C@@H](C)O)C(=O)N[C@@H](Cc1c[nH]c2ccccc12)C(N)=O [Compound No. 728, Ac-D-Tyr-Abz(2)-Asn-Thr-Phe-AzaGly-Leu-Arg(Me)-Trp-NH2] (Ac-[dY][2Abz]NTF[azaGly]L[Arg(Me)]W-NH2) to CNC(=N)NCCC[C@H](NC(=O)[C@H](CC(C)C)NC(=O)NNC(=O)[C@H](Cc1ccccc1)NC(=O)[C@@H](NC(=O)[C@H](CC(N)=O)NC(=O)[C@@H](CO)NC(=O)[C@@H](Cc1ccc(O)cc1)NC(C)=O)[C@@H](C)O)C(=O)N[C@@H](Cc1c[nH]c2ccccc12)C(N)=O [Compound No. 737, Ac-D-Tyr-D-Ser-Asn-Thr-Phe-AzaGly-Leu-Arg(Me)-Trp-NH2] (Ac-[dY][dS]NTF[azaGly]L[Arg(Me)]W-NH2), the “Specific Activity: intracellular Ca ion level-increasing activity [specific activity to Metastin (1-54)]” value falls from 3.2 to 3.0.

In the case of CNC(=N)NCCC[C@H](NC(=O)[C@H](CC(C)C)NC(=O)NNC(=O)[C@H](Cc1ccccc1)NC(=O)[C@@H](NC(=O)[C@H](CC(N)=O)NC(=O)[C@@H](CC(=O)O)NC(=O)[C@@H](Cc1ccc(O)cc1)NC(C)=O)[C@@H](C)O)C(=O)N[C@@H](Cc1c[nH]c2ccccc12)C(N)=O [Compound No. 735, Ac-D-Tyr-D-Asp-Asn-Thr-Phe-AzaGly-Leu-Arg(Me)-Trp-NH2] (Ac-[dY][dD]NTF[azaGly]L[Arg(Me)]W-NH2), the “Specific Activity: intracellular Ca ion level-increasing activity [specific activity to Metastin (1-54)]” value is reported as 3.4.
